According to ChEMBL document CHEMBL1133310, “Naphthalene carboxamides as inhibitors of human cytomegalovirus DNA polymerase” (Bioorg Med Chem Lett, 2000):

tested on: HFF; assay: Antiviral activity in a cell-based plaque reduction assay, using an HFF cell line and the Davis strain of HCMV; format: functional; conditions: Homo sapiens

| SMILES | IC50 [nM] |
| --- | --- |
| O=C(NCc1ccc([N+](=O)[O-])cc1)c1cc2cccc(O)c2cc1O | 1500 |
| COc1ccc2cc(O)c(C(=O)NCc3ccc([N+](=O)[O-])cc3)cc2c1 | 3700 |
| O=C(NCc1ccc(Cl)cc1)c1cc2cc(O)ccc2cc1O | 1000 |
| O=C(NCc1ccc(Cl)cc1)c1ccc2ccccc2c1O | > 20000 |
| COc1ccc2cc(O)c(C(=O)Nc3nc4c(Cl)cccc4s3)cc2c1 | > 5000 |
| Nc1nc2c(ncn2COC(CO)CO)c(=O)[nH]1 [GANCICLOVIR] | 600 |
| O=C(NCCc1ccc(Cl)cc1)c1cc2ccccc2cc1O | > 20000 |
| O=C(NCc1ccc(Cl)cc1)c1cc2cccc(O)c2cc1O | 600 |

molecular target: T1, DNA polymerase alpha catalytic subunit (Homo sapiens, UniProt P09884); assay: Compound was evaluated for the inhibitory activity against Human alpha polymerase; conditions: not given
T1 sequence (P09884 whole entry): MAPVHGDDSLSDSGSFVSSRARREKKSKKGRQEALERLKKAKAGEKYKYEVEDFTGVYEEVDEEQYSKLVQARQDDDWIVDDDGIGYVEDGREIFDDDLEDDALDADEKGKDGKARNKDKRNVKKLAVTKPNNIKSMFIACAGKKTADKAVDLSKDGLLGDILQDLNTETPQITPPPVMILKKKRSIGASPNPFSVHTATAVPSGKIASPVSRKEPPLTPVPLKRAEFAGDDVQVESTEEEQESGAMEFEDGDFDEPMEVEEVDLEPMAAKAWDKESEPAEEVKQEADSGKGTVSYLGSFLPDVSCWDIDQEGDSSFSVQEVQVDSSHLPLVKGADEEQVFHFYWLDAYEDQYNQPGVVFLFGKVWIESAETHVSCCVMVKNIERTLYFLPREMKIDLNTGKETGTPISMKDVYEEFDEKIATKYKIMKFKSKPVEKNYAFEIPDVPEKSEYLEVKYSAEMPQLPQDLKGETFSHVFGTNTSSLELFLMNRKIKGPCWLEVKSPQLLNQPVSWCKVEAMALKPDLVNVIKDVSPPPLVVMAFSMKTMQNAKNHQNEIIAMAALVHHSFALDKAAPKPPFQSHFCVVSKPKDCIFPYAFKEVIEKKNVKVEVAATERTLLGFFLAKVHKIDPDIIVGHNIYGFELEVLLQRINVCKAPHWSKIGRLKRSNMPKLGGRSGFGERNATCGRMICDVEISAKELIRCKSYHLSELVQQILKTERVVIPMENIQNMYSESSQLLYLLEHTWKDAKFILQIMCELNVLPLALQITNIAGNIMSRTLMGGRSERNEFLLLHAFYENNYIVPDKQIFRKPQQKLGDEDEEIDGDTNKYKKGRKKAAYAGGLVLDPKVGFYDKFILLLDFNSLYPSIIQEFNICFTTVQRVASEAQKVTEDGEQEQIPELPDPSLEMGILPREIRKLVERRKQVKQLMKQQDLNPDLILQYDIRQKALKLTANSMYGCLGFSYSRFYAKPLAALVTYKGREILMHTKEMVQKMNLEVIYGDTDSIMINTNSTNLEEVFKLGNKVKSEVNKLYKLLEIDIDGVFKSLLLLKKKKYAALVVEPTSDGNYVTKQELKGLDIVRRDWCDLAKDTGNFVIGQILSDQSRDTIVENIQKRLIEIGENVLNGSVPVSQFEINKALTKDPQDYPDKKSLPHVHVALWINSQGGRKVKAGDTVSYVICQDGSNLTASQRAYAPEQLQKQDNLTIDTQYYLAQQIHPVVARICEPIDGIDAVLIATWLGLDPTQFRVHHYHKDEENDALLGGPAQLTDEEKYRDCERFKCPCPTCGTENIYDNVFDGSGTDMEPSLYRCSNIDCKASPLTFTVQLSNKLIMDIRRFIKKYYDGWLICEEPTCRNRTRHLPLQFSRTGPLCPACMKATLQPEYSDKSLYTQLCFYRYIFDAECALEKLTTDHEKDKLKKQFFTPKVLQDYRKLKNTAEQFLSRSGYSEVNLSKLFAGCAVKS

| SMILES | IC50 [nM] |
| --- | --- |
| O=C(Nc1cccc([N+](=O)[O-])c1)c1cc2ccccc2cc1O | 32000 |
